{"source": "paper PMC5587909", "about": "“Inhibition of the ATP Synthase Eliminates the Intrinsic Resistance of Staphylococcus aureus towards Polymyxins” (mBio, 2017)", "assay_in_all_cases": "microbe, parasite or virus in culture", "key": {"[1]": {"test_system": "S. aureus JE2 vraG transposon mutant (SAUSA300_0648)", "text": "(§1) Staphylococcus aureus is intrinsically resistant to the clinically approved cationic antimicrobial peptides polymyxin B (PMB) and colistin ([1], [16]). […] The MIC for PMB was subsequently determined using Etests for the identified mutants.\n(§2) The strains used in this study include S. aureus strain JE2 (plasmid-cured derivative of USA300 LAC) and all derivative strains within the Nebraska Transposon Mutant Library (NTML), consisting of 1,920 unique transposon mutants with inactivation of nonessential genes ([15]). The bursa aurealis transposon used to create the collection contains the resistance cassette ermB, which confers resistance to erythromycin ([15]). Additionally we used S. aureus SA113 and two derivatives, SA113 ΔdltA ([9]) and SA113 ΔmprF ([10]). All bacterial strains were cultured at 37°C in tryptic soy broth (TSB) or on tryptic soy agar (TSA), with antimicrobial agents added as indicated. Two methods have been employed to determine MICs to various antimicrobial agents. (i) A 2-fold broth microdilution assay in TSB (100 µl) with an initial inoculum of approximately 5 × 10^5 cells/ml was employed to determine the MICs of polymyxin B sulfate (Sigma), gallidermin (Santa Cruz Biotechnology), nisin (Sigma), bacitracin (Sigma), and LL-37 (Isca Biochemicals). […] The MIC was determined upon incubation at 37°C for 22 h. […]"}, "[2]": {"test_system": "S. aureus JE2 graR transposon mutant (SAUSA300_0645)", "text": "as §1, §2"}, "[3]": {"test_system": "S. aureus JE2 vraF transposon mutant (SAUSA300_0647)", "text": "as §1, §2"}, "[4]": {"test_system": "S. aureus JE2 atpA transposon mutant (SAUSA300_2060)", "text": "as §1, §2"}, "[5]": {"test_system": "S. aureus JE2 (wild type)", "details": "22 h; for MIC: Staphylococcus aureus, read-out: MIC, WT", "text": "as §1, §2"}}, "data": [{"compound": "CNC(C)C1CCC(N)C(OC2C(N)CC(N)C(OC3OCC(C)(O)C(NC)C3O)C2O)O1", "note": "(stereo not shown) [Gentamicin, gentamicin]", "values": [{"measurement": "MIC", "setting": "[1]; Staphylococcus aureus, 22 h, read-out: MIC, vraG", "value": 0.25, "unit": "mg/L"}, {"measurement": "fold reduction in MIC / increased sensitivity relative to WT", "setting": "[1]; {}", "value": "3-6 fold"}, {"measurement": "MIC", "setting": "[2]; Staphylococcus aureus, 22 h, read-out: MIC, graR", "value": 0.5, "unit": "mg/L"}, {"measurement": "fold reduction in MIC / increased sensitivity relative to WT", "setting": "[2]; {}", "value": "3-6 fold"}, {"measurement": "MIC", "setting": "[3]; Staphylococcus aureus, 22 h, read-out: MIC, vraF", "value": 0.38, "unit": "mg/L"}, {"measurement": "fold reduction in MIC / increased sensitivity relative to WT", "setting": "[3]; {}", "value": "3-6 fold"}, {"measurement": "MIC", "setting": "[4]; Staphylococcus aureus, 22 h, read-out: MIC, atpA", "value": 0.094, "unit": "mg/L"}, {"measurement": "fold reduction in MIC / increased sensitivity relative to WT", "setting": "[4]; {}", "value": 16, "unit": "fold"}, {"measurement": "MIC", "setting": "[5]", "value": 1.5, "unit": "mg/L"}]}, {"compound": "CC(=O)NC[C@H]1CN(c2ccc(N3CCOCC3)c(F)c2)C(=O)O1", "note": "[Linezolid, linezolid]", "values": [{"measurement": "MIC", "setting": "[5]", "value": 2, "unit": "mg/L"}]}, {"compound": "Cc1onc(-c2ccccc2)c1C(=O)N[C@@H]1C(=O)N2[C@@H]1SC(C)(C)[C@@H]2C(=O)O", "note": "[Oxacillin, oxacillin]", "values": [{"measurement": "MIC", "setting": "[5]", "value": 0.5, "unit": "mg/L"}]}, {"compound": "CN[C@H](CC(C)C)C(=O)N[C@H]1C(=O)N[C@@H](CC(N)=O)C(=O)N[C@H]2C(=O)N[C@H]3C(=O)N[C@H](C(=O)N[C@H](C(=O)O)c4cc(O)cc(O)c4-c4cc3ccc4O)[C@H](O)c3ccc(c(Cl)c3)Oc3cc2cc(c3O[C@@H]2O[C@H](CO)[C@@H](O)[C@H](O)[C@H]2O[C@H]2C[C@](C)(N)[C@H](O)[C@H](C)O2)Oc2ccc(cc2Cl)[C@H]1O", "note": "[Vancomycin, vancomycin]", "values": [{"measurement": "MIC, vraG", "setting": "[1]; conventional antibiotics (Table 3), Etest on TSA, 37°C, 22 h, vraG mutant", "value": 1, "unit": "mg/L"}, {"measurement": "MIC, graR", "setting": "[2]; conventional antibiotics (Table 3), Etest on TSA, 37°C, 22 h, graR mutant", "value": 1, "unit": "mg/L"}, {"measurement": "MIC, vraF", "setting": "[3]; conventional antibiotics (Table 3), Etest on TSA, 37°C, 22 h, vraF mutant", "value": 0.75, "unit": "mg/L"}, {"measurement": "MIC, atpA", "setting": "[4]; conventional antibiotics (Table 3), Etest on TSA, 37°C, 22 h, atpA mutant", "value": 1.500, "unit": "mg/L"}, {"measurement": "MIC, WT", "setting": "[5]; conventional antibiotics (Table 3), Etest on TSA, 37°C, WT JE2", "value": 1.5, "unit": "mg/L"}]}]}
